GI50 and TGI data for ten compounds are collected here from PubChem BioAssay (NCI).

Among the test systems are OVCAR-8 ovarian; SK-MEL-5 melanoma; UACC-62 melanoma; NCI-H23 lung; A549 NSCLC; EKVX NSCLC; SNB-19 CNS; OVCAR-4 ovarian; HOP-92 NSCLC; M14 melanoma.
What all share (experiment): NCI-60 cell line screen, 48 h

Molecules are shown by their SMILES.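 Cultured in 96-well plates, cells were exposed to test compound for 48 hours across five concentrations. The concentration for 50% growth inhibition is given as GI50. TGI: total growth inhibition.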

On to `BrCc1ccc(CBr)cc1`, for which the GI50 in the assay with OVCAR-8 ovarian was 5.52 µM; in the assay with SK-MEL-5 melanoma, 14.3 µM; in the assay on UACC-62 melanoma, 5.13 µM; with NCI-H23 lung it was 10.7 µM; with A549 NSCLC, 21.7 µM; with EKVX NSCLC it was 10.5 µM. For the same compound, the GI50 is 0.528 µM with SNB-19 CNS, 8.96 µM in the assay with OVCAR-4 ovarian, 18.7 µM in the assay on HOP-92 NSCLC and 11.3 µM in the assay on M14 melanoma. Besides, the TGI is 20.9 µM in the assay on OVCAR-8 ovarian; 40.2 µM with SK-MEL-5 melanoma; 22.3 µM in the assay on UACC-62 melanoma; over 35.4 µM in the assay with NCI-H23 lung; 76.8 µM in the assay with A549 NSCLC; 25.7 µM in the assay with EKVX NSCLC. Further, the TGI is 25.8 µM in the assay with SNB-19 CNS, 22.4 µM in the assay on OVCAR-4 ovarian, 53.7 µM with HOP-92 NSCLC and over 47.3 µM with M14 melanoma.
Consider `Fc1cccc(C2SCc3nc4ccccc4n32)c1F` (centres undefined), for which the TGI is over 100 µM with OVCAR-8 ovarian; 53.2 µM with SK-MEL-5 melanoma; over 100 µM in the assay on UACC-62 melanoma; over 100 µM in the assay on NCI-H23 lung; over 100 µM in the assay with A549 NSCLC; over 100 µM in the assay on EKVX NSCLC. Also, the TGI is over 100 µM in the assay with SNB-19 CNS, over 100 µM in the assay with OVCAR-4 ovarian, 85 µM with HOP-92 NSCLC and over 100 µM in the assay on M14 melanoma.
On to `COc1ccc(C(Cl)=C(c2ccc(OCCN(C)C)cc2)c2ccc(OCCN(C)C)cc2)cc1`, for which the TGI in the assay with OVCAR-8 ovarian stood at 4.06 µM; with SK-MEL-5 melanoma, 3.52 µM; in the assay with UACC-62 melanoma it was 3.16 µM; in the assay on NCI-H23 lung, 3.98 µM; in the assay with A549 NSCLC, 3.67 µM; with EKVX NSCLC, 18.1 µM. For the same compound, the TGI is 7.43 µM in the assay on SNB-19 CNS, 5.99 µM in the assay on OVCAR-4 ovarian, 6.1 µM in the assay on HOP-92 NSCLC and 2.92 µM with M14 melanoma.
As for `Cc1ccc(C2=Nc3ccccc3SC(c3cccc([N+](=O)[O-])c3)C2)cc1` (centres undefined), the TGI was 71.2 µM with OVCAR-8 ovarian; over 100 µM in the assay with SK-MEL-5 melanoma; over 100 µM in the assay with UACC-62 melanoma; over 100 µM in the assay with NCI-H23 lung; over 100 µM with A549 NSCLC; over 100 µM in the assay with EKVX NSCLC. Besides, the TGI is over 100 µM with SNB-19 CNS, over 100 µM with OVCAR-4 ovarian, 81.3 µM in the assay on HOP-92 NSCLC and over 100 µM with M14 melanoma.
Turning to `COCCOCOc1ccc(OCOCCOC)c2c1C(=O)c1ccccc1C2=O`, the TGI with OVCAR-8 ovarian, with SK-MEL-5 melanoma, in the assay on UACC-62 melanoma, in the assay on NCI-H23 lung, in the assay on A549 NSCLC and in the assay with EKVX NSCLC was over 100 µM in each case. Moreover, the TGI in the assay with SNB-19 CNS, in the assay on OVCAR-4 ovarian, in the assay with HOP-92 NSCLC and in the assay with M14 melanoma was over 100 µM in each case.
`CN(C)c1ccc(N=Nc2ccncc2)cc1`: the TGI in the assay with OVCAR-8 ovarian, in the assay with SK-MEL-5 melanoma, in the assay on UACC-62 melanoma, in the assay on NCI-H23 lung, in the assay with A549 NSCLC and in the assay with EKVX NSCLC was over 100 µM throughout. Besides, the TGI in the assay on SNB-19 CNS was over 100 µM; with OVCAR-4 ovarian it was over 100 µM; with HOP-92 NSCLC, 98.6 µM; in the assay on M14 melanoma, over 100 µM.
For the compound `Cc1ccc(S(=O)OC2C3CC4CC(C3)CC2C4)cc1` (centres undefined), the TGI in the assay on OVCAR-8 ovarian, with SK-MEL-5 melanoma, in the assay on UACC-62 melanoma, with NCI-H23 lung, with A549 NSCLC and in the assay on EKVX NSCLC was over 100 µM in each case. Further, the TGI in the assay on SNB-19 CNS, in the assay on OVCAR-4 ovarian, in the assay with HOP-92 NSCLC and in the assay with M14 melanoma was over 100 µM each time.
Turning to `COC(=O)c1nc(-c2ccccc2)oc1S(=O)(=O)n1nc(C)cc1N`, the GI50 in the assay with OVCAR-8 ovarian is 19.7 µM; with SK-MEL-5 melanoma, 15.5 µM; in the assay on UACC-62 melanoma it was 13.7 µM; with NCI-H23 lung, 16.7 µM; with A549 NSCLC it was 28.9 µM; in the assay on EKVX NSCLC, 16.7 µM. Also, the GI50 in the assay with SNB-19 CNS is 15.6 µM; with OVCAR-4 ovarian it was 16.2 µM; with HOP-92 NSCLC, 1.73 µM; with M14 melanoma it was 5.66 µM. Moreover, the TGI with OVCAR-8 ovarian turned out to be 50.3 µM; in the assay on SK-MEL-5 melanoma, 29.7 µM; in the assay with UACC-62 melanoma it was 28.1 µM; in the assay with NCI-H23 lung it was 35.9 µM; in the assay with A549 NSCLC it was 84 µM; in the assay with EKVX NSCLC, 43.9 µM. Further, the TGI in the assay on SNB-19 CNS was 34.3 µM; with OVCAR-4 ovarian it was 36 µM; with HOP-92 NSCLC, 3.89 µM; in the assay with M14 melanoma, 20 µM.
Consider `C[C@@H]1O[C@@H](O[C@H]2CC[C@@]3(C)[C@H](CCC4[C@@H]3C(O)C[C@]3(C)[C@@H](c5ccc(=O)oc5)CC[C@]43O)C2)[C@H](O)[C@H](O)[C@H]1O` (some centres undefined), for which the GI50 in the assay with OVCAR-8 ovarian is 0.00415 µM; in the assay on SK-MEL-5 melanoma, 0.00561 µM; in the assay on UACC-62 melanoma it was 0.00698 µM; with NCI-H23 lung it was under 0.00325 µM; in the assay with A549 NSCLC, under 0.00325 µM; in the assay on EKVX NSCLC, 0.00379 µM. The GI50 in the assay on SNB-19 CNS is 0.0108 µM; with OVCAR-4 ovarian, under 0.00325 µM; with HOP-92 NSCLC, 0.00786 µM; in the assay with M14 melanoma, 0.00609 µM. Besides, the TGI turned out to be 0.00801 µM in the assay on OVCAR-8 ovarian; 0.0107 µM with SK-MEL-5 melanoma; 0.0153 µM in the assay with UACC-62 melanoma; 0.00672 µM with NCI-H23 lung; 0.00441 µM with A549 NSCLC; 0.00766 µM in the assay with EKVX NSCLC. Further, the TGI with SNB-19 CNS worked out at 0.0357 µM; in the assay on HOP-92 NSCLC, 0.0216 µM; in the assay with M14 melanoma, 0.0148 µM.
Take `N#CN1CC[C@H](C(=O)Nc2ncc(-c3ccncc3)s2)C1`: the GI50 in the assay on OVCAR-8 ovarian is 0.0596 µM; in the assay on SK-MEL-5 melanoma, 0.0925 µM; with UACC-62 melanoma, under 0.0172 µM; in the assay with NCI-H23 lung it was 0.0269 µM; in the assay with A549 NSCLC it was 0.262 µM; with EKVX NSCLC, 0.0642 µM. Besides, the GI50 is 0.415 µM with SNB-19 CNS, under 0.027 µM in the assay with OVCAR-4 ovarian, 0.0802 µM in the assay on HOP-92 NSCLC and 0.0379 µM in the assay with M14 melanoma. The TGI is over 100 µM in the assay on OVCAR-8 ovarian; 5.58 µM with SK-MEL-5 melanoma; 1.32 µM in the assay on UACC-62 melanoma; 3.44 µM with NCI-H23 lung; over 100 µM in the assay on A549 NSCLC; 4.4 µM in the assay on EKVX NSCLC. Moreover, the TGI in the assay on SNB-19 CNS is over 69.6 µM; in the assay with OVCAR-4 ovarian, 7.07 µM; in the assay on HOP-92 NSCLC, 0.761 µM; in the assay on M14 melanoma it was 2.1 µM.
